This note sets out measurements from ChEMBL document CHEMBL1143306, “3-amido-4-anilinoquinolines as CSF-1R kinase inhibitors 2: Optimization of the PK profile” (Bioorg Med Chem Lett, 2009).

Data set [1] addresses T1, Macrophage colony-stimulating factor 1 receptor (Homo sapiens, UniProt P07333). As to the kind of experiment: Inhibition of CSF1R.
Data set [2] can be described thus: Aqueous solubility of the compound. In kind it is physicochemical. The settings on record: buffer.
Data set [3] has as its system NIH3T3. The data set is described as follows: Antiproliferative activity against mouse 3T3 cells expressing human CSF1R after 72 hrs by Celltiter assay. It counts as functional.
A short description of data set [4]: Volume of distribution at steady state in rat at 3 mg/kg, iv and 10 mg/kg, po. It counts as ADME, organism-based. The settings on record: in vivo, read-out: Vdss.
Data set [5] can be described thus: Half life in rat at 3 mg/kg, iv and 10 mg/kg, po. To be noted: in vivo. In kind it is ADME, organism-based.
Data set [6] can be described thus: Clearance in rat at 3 mg/kg, iv and 10 mg/kg, po. It counts as ADME, organism-based. The settings on record: in vivo.
The nature of data set [7]: Plasma protein binding assessed as percentage unbound.
The nature of data set [8]: Bioavailability in rat at 3 mg/kg, iv and 10 mg/kg, po. In kind it is ADME, organism-based. The settings on record: in vivo.
Data set [9] has as its system Mus musculus. As to the kind of experiment: Inhibition of phosphorylated CSF1R level in 3T3/CSF1R mutant cells xenografted nude mouse at 25 mg/kg, po after 2 hrs by ELISA. In kind it is functional. For orientation: In an ELISA, binding on a coated surface is turned into a signal by an enzyme label.
Data set [10] has as its system Mus musculus. The data set is described as follows: Inhibition of phosphorylated CSF1R level in 3T3/CSF1R mutant cells xenografted nude mouse at 25 mg/kg, po after 6 hrs by ELISA. It counts as functional.
The target in data set [11] is ALK tyrosine kinase receptor (Homo sapiens) (UniProt Q9UM73). The data set is described as follows: Inhibition of ALK at 1 uM.
Data set [12] concerns the target T2, NUAK family SNF1-like kinase 1 (Homo sapiens) (UniProt O60285).
T2 sequence (whole entry): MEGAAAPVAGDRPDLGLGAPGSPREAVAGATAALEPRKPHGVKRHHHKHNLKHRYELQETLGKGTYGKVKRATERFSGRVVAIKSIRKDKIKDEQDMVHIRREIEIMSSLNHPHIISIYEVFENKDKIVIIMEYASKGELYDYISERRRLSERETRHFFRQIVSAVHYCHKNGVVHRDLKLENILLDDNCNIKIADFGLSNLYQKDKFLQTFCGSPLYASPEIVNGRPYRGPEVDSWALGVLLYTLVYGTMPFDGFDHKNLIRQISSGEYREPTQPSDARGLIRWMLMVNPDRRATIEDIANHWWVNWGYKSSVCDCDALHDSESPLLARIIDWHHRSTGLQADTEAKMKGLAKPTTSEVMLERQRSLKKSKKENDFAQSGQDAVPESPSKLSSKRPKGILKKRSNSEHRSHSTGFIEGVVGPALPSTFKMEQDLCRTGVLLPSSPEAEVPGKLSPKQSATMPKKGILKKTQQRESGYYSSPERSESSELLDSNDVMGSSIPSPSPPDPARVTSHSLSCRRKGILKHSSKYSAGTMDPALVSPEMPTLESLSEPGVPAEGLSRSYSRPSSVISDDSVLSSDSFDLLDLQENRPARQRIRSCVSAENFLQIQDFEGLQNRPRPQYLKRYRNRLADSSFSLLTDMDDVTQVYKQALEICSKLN
The data set is described as follows: Inhibition of ARK5 at 1 uM.

For data set [13], the target named is Ribosomal protein S6 kinase alpha-1 (Homo sapiens) (UniProt Q15418). As to the kind of experiment: Inhibition of RSK1 at 1 uM.
The target of data set [14] is T1, Macrophage colony-stimulating factor 1 receptor. The data set is described as follows: Inhibition of CSF1R at 1 uM.

≈ marks a conversion by molar mass, not a printed value.

T1 sequence (P07333 whole entry): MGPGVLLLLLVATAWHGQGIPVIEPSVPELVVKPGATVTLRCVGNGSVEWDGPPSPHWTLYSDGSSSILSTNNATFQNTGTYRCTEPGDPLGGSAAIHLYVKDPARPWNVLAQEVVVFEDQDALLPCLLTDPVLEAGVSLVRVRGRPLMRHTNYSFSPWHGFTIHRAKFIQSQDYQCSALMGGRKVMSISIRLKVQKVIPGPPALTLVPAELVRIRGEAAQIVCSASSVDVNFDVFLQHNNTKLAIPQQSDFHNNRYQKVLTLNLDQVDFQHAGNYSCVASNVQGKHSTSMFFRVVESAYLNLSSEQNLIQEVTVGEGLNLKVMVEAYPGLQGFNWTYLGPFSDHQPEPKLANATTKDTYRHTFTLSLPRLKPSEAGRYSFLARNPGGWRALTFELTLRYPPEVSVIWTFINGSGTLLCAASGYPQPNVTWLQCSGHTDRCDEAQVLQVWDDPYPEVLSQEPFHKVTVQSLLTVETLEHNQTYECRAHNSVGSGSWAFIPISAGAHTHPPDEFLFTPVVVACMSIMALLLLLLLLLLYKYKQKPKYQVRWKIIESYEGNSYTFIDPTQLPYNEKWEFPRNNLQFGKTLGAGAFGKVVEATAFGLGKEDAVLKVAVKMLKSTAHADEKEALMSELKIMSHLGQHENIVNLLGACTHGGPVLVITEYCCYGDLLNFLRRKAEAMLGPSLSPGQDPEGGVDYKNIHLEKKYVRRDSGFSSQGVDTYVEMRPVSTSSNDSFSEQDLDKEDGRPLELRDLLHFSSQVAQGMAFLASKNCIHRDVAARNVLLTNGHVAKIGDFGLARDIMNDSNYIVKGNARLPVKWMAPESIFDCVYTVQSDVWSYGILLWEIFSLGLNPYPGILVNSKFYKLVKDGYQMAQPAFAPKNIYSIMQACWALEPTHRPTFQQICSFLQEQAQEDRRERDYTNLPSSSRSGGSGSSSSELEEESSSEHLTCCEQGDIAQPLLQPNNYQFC
Ribosomal protein S6 kinase alpha-1 (Homo sapiens), sequence (Q15418 whole entry): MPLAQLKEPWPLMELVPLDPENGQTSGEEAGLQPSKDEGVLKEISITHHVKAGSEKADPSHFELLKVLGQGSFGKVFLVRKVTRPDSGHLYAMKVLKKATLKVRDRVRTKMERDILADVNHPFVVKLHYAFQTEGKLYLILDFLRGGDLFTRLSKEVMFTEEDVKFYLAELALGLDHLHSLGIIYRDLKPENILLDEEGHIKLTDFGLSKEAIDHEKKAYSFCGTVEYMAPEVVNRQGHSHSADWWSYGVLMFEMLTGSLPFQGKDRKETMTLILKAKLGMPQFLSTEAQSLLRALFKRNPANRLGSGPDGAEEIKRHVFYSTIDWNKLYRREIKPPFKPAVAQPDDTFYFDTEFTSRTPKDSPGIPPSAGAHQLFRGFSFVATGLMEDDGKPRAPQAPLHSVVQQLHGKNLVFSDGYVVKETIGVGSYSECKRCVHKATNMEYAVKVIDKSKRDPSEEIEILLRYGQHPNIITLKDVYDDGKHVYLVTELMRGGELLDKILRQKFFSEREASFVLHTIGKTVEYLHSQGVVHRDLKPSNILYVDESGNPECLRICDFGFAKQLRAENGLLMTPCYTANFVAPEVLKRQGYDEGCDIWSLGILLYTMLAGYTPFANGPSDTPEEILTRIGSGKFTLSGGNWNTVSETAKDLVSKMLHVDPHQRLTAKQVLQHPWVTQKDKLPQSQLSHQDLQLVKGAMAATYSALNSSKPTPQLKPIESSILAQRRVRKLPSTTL
ALK tyrosine kinase receptor (Homo sapiens), sequence (Q9UM73 19-1620 limits assumed): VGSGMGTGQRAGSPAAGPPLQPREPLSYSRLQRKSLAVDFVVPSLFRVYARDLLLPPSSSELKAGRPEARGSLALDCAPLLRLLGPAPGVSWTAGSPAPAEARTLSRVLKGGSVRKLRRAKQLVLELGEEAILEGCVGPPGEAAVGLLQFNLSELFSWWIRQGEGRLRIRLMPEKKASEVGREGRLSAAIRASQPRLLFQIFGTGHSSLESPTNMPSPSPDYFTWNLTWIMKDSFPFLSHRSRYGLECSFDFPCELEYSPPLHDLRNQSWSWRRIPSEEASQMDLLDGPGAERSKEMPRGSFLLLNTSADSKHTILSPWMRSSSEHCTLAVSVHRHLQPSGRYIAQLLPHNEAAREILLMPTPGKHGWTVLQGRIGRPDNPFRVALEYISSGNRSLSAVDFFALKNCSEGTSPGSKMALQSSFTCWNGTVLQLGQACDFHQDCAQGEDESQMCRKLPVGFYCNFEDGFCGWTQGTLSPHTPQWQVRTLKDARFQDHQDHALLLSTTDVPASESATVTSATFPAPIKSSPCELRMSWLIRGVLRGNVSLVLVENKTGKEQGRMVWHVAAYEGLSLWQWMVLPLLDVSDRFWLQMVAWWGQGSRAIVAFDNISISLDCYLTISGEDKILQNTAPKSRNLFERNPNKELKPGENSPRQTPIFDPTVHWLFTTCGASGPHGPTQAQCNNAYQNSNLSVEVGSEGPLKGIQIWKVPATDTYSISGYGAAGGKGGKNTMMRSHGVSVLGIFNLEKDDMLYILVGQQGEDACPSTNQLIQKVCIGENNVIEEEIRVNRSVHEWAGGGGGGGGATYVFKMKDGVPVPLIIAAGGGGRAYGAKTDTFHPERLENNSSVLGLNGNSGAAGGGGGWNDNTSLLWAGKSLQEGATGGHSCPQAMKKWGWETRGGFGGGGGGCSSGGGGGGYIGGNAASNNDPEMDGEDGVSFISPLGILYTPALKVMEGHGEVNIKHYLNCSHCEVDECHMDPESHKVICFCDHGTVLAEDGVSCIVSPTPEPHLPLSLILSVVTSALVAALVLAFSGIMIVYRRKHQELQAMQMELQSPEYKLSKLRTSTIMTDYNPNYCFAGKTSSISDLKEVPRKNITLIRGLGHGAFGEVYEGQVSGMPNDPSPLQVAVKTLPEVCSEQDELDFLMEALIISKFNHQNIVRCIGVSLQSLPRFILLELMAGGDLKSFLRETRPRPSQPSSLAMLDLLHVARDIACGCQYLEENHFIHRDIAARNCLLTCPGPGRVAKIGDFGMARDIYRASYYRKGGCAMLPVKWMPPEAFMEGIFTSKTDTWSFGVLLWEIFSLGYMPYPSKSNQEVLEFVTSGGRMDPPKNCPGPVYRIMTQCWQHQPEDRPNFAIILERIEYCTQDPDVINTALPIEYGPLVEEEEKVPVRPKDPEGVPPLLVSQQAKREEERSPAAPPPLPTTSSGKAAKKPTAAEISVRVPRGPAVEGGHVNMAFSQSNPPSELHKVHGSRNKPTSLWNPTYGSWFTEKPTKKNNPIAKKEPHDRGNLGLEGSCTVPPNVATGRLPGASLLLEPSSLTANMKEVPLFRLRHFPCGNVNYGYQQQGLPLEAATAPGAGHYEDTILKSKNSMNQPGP

A word on the IC50: it is the concentration needed to halve the response being measured. Low values mean inhibition by little substance, high ones a need for much substance. For orientation: solubility means the dissolved amount per volume that the medium holds. The half-life is the time needed for the level to fall by half in the phase considered. The term fraction unbound denotes the share of the substance not bound to proteins or other matrix. Take `CN1CCN(c2ccc3ncc(C(N)=O)c(Nc4cccc(Cl)c4Cl)c3c2)CC1`: the IC50 in data set [1] was 8 nM. In data set [2], this molecule had a solubility of 44 µM (≈ 18.9 µg/mL). This molecule also registered an Activity in data set [3] of 0.71 µM. For the same molecule, the Vd in data set [4] came out at 5.9 L/kg. Besides, the half-life in [5] is 0.7 h. This molecule also gave a clearance in data set [6] of 190 mL/min/kg. The fraction unbound in data set [7] was determined as 0.046.

In [1], `COc1cc2ncc(C(N)=O)c(Nc3ccc(F)cc3F)c2cc1N1CCN(C)CC1` had an IC50 of 6 nM. Further, the bioavailability in [8] turned out to be 90%. Moreover, the solubility in data set [2] was more than 1000 µM. Moreover, the Activity in [3] was 1 µM. For the same molecule, the Vd in [4] amounted to 2.3 L/kg. In [5], the half-life was 1.8 h. In data set [6], this molecule had a clearance of 15 mL/min/kg. Further, in data set [7], the fraction unbound was 0.25.

As a reminder, the inhibition in vivo is the drop in the measured response relative to a control, in per cent. Low values mean a weak effect, high ones a strong effect. With `CCOc1cc2ncc(C(N)=O)c(Nc3cccc(Cl)c3Cl)c2cc1N1CCN(C)CC1`, the inhibition in vivo at 25 mg/kg in data set [9] was found to be 75%; in data set [10] it was 45%. This molecule returned an IC50 in data set [1] of less than 3 nM. The bioavailability in data set [8] was determined as 100%. This molecule also displayed a solubility in data set [2] of 50 µM (≈ 23.7 µg/mL). Moreover, the Vd in data set [4] was 3.5 L/kg. The half-life in data set [5] was 0.9 h. The molecule also returned a clearance in data set [6] of 57 mL/min/kg. In addition, the fraction unbound in data set [7] was found to be 0.02.

Regarding `CN1CCN(c2ccc3ncc(C(N)=O)c(Nc4ccc(Cl)cc4Cl)c3c2)CC1`, in data set [1], it took 129 nM to reach half-maximal inhibition (IC50). This molecule gave a solubility in data set [2] of 180 µM (≈ 77.5 µg/mL). For the same molecule, in data set [3], the Activity was determined as 8.9 µM. In [7], the fraction unbound is 0.018.

In the case of `CN1CCN(c2cc3c(Nc4ccc(F)cc4F)c(C(N)=O)cnc3cc2F)CC1`, the IC50 in [1] stood at 54 nM. Also, the bioavailability in [8] was 13%. In data set [2], this molecule registered a solubility of 71 µM (≈ 29.5 µg/mL). Besides, the Activity in [3] came to 4.2 µM. For the same molecule, the Vd in data set [4] amounted to 1.4 L/kg. Moreover, the half-life in [5] was 1.1 h. This molecule also returned a clearance in data set [6] of 20 mL/min/kg. In data set [7], the free fraction (fraction unbound) was 0.24.

By inhibition is commonly meant the percentage by which the read-out fell short of the control. Low readings indicate little suppression, high ones strong suppression. With `CCOc1cc2ncc(C(N)=O)c(Nc3ccc(F)cc3F)c2cc1N1CCN(C)CC1`, the inhibition was 23% in data set [11], 51% in data set [12], 21% in data set [13] and 96% in data set [14]. Moreover, the values for the inhibition in vivo at 25 mg/kg in [9] and in data set [10] were 90% and 65%, respectively. In [1], inhibition was half-maximal at 6 nM (IC50). Besides, the bioavailability in data set [8] worked out at 100%. This molecule also registered a solubility in data set [2] of 290 µM (≈ 128 µg/mL). Moreover, the Vd in [4] is 2.5 L/kg. The half-life in data set [5] is 2.1 h. In data set [6], the clearance was determined as 12 mL/min/kg. Further, the fraction unbound in data set [7] worked out at 0.11.

`COc1cc2c(Nc3ccc(Cl)c(Cl)c3)c(C(N)=O)cnc2cc1N1CCN(C)CC1`: in [1], the concentration for half-maximal inhibition (IC50) was 24 nM. For the same molecule, the Activity in [3] was found to be 0.55 µM.

`COc1cc2ncc(C(N)=O)c(Nc3ccc(Cl)cc3Cl)c2cc1N1CCN(C)CC1` came in with an IC50 in data set [1] of 3 nM. In data set [2], this molecule registered a solubility of 160 µM (≈ 73.7 µg/mL). Further, the Activity in data set [3] was found to be 0.64 µM. Moreover, the Vd in [4] turned out to be 8.7 L/kg. The same molecule gave a half-life in data set [5] of 1.7 h. In data set [6], this molecule came in with a clearance of 72 mL/min/kg. Also, the fraction unbound in data set [7] is 0.032.

`CN1CCN(c2cc3c(Nc4cccc(Cl)c4Cl)c(C(N)=O)cnc3cc2F)CC1`: the IC50 in data set [1] came to 3 nM. The molecule further showed a solubility in data set [2] of 8 µM (≈ 3.59 µg/mL). Moreover, the Activity in data set [3] was 0.44 µM. In data set [4], the Vd came to 1.1 L/kg. The same molecule showed a half-life in [5] of 0.8 h. Besides, the clearance in data set [6] is 23 mL/min/kg. In addition, the fraction unbound in [7] was 0.044.

Consider `COc1cc2ncc(C(N)=O)c(Nc3cccc(Cl)c3Cl)c2cc1N1CCN(C)CC1`, for which the IC50 in [1] is less than 3 nM. The bioavailability in data set [8] turned out to be 110%. In [2], this molecule registered a solubility of 810 µM (≈ 373 µg/mL). Further, the Activity in data set [3] is 0.06 µM. In data set [4], the Vd was 6.8 L/kg. The same molecule gave a half-life in [5] of 2.5 h. The molecule further returned a clearance in data set [6] of 76 mL/min/kg. The fraction unbound in data set [7] was found to be 0.045.

As for `COc1cc2c(Nc3ccc(F)cc3F)c(C(N)=O)cnc2cc1N1CCN(C)CC1`, in data set [1], the IC50 stood at 11 nM. In [2], this molecule displayed a solubility of more than 1000 µM. In data set [3], this molecule came in with an Activity of 0.72 µM.

For `CN1CCN(c2ccc3ncc(C(N)=O)c(Nc4ccc(F)cc4F)c3c2)CC1`, the midpoint of inhibition in data set [1], the IC50, lay at 110 nM. In addition, in [8], the bioavailability was determined as 21%. The solubility in data set [2] is 970 µM (≈ 386 µg/mL). This molecule also came in with an Activity in [3] of 3.9 µM. For the same molecule, the Vd in data set [4] was determined as 7.6 L/kg. In data set [5], this molecule showed a half-life of 1.9 h. The molecule further returned a clearance in data set [6] of 45 mL/min/kg. The fraction unbound in data set [7] was determined as 0.26.

Regarding `CCOc1cc2ncc(C(N)=O)c(Nc3cccc(Cl)c3Cl)c2cc1N1CCN(C(C)C)CC1`, the inhibition in vivo at 25 mg/kg came to 85% in data set [9] and 65% in [10]. For the same molecule, the bioavailability in data set [8] worked out at 66%. Further, the solubility in [2] was 250 µM (≈ 126 µg/mL). The molecule also yielded an Activity in data set [3] of 0.02 µM. Besides, in data set [4], the Vd was 11 L/kg. Further, in data set [5], the half-life was 1.2 h. Moreover, the clearance in [6] was determined as 120 mL/min/kg. In addition, the fraction unbound in data set [7] amounted to 0.015.

Consider `COCCOc1cc2ncc(C(N)=O)c(Nc3cccc(Cl)c3Cl)c2cc1N1CCN(C)CC1`, for which the inhibition in vivo at 25 mg/kg came out at 100% in data set [9] and 80% in data set [10]. Further, the bioavailability in data set [8] was 32%. Also, the concentration in solution in data set [2] (solubility) was 380 µM (≈ 192 µg/mL). This molecule also displayed an Activity in data set [3] of 0.01 µM. For the same molecule, the Vd in data set [4] is 21 L/kg. The half-life in data set [5] is 0.83 h. In addition, the clearance in data set [6] worked out at 290 mL/min/kg. The fraction unbound in data set [7] was 0.1.

For `CCOc1cc2ncc(C(N)=O)c(Nc3cccc(Cl)c3Cl)c2cc1N1CCCN(C)CC1`, the inhibition in vivo at 25 mg/kg came out at 90% in [9] and 95% in data set [10]. For the same molecule, in data set [8], the bioavailability is 100%. The molecule also came in with a solubility in data set [2] of 130 µM (≈ 63.5 µg/mL). In data set [3], this molecule had an Activity of 0.05 µM. Moreover, the Vd in [4] amounted to 40 L/kg. Also, the half-life in data set [5] was 8.6 h. The same molecule showed a clearance in data set [6] of 63 mL/min/kg. In data set [7], the fraction unbound is 0.019.

As for `CC(C)Oc1cc2ncc(C(N)=O)c(Nc3ccc(F)cc3F)c2cc1N1CCN(C)CC1`, the inhibition in vivo at 25 mg/kg came to 100% in [9] and 50% in data set [10]. Further, in data set [8], the bioavailability came out at 40%. The same molecule had a solubility in [2] of 52 µM (≈ 23.7 µg/mL). Moreover, the Activity in [3] came out at 0.17 µM. The Vd in data set [4] was 1.4 L/kg. The molecule also gave a half-life in data set [5] of 2.3 h. Further, the clearance in data set [6] amounted to 7 mL/min/kg. For the same molecule, the fraction unbound in [7] stood at 0.017.

`CN1CCN(c2ccc3ncc(C(N)=O)c(Nc4ccc(Cl)c(Cl)c4)c3c2)CC1`: half-maximal inhibition in data set [1] (IC50) was put at 59 nM. The concentration in solution in [2] (solubility) was 720 µM (≈ 310 µg/mL). The molecule also had an Activity in data set [3] of 2.7 µM. Besides, in data set [7], the fraction unbound worked out at 0.058.
